From patent US9150845B2, “Lyase enzymes, nucleic acids encoding them and methods for making and using them” (BASF ENZYMES LLC, priority 2005, dated 2015)

How the values were obtained:
DH5α host = experiment: Ammonia selection (growth with amino acid substrate, host + vector); format: cell-based; conditions: substrate tested
Text: (§1) An exemplary activity-based discovery protocol comprises use of an ammonia selection using α-methylPhe to screen environmental libraries. […] A phenylalanine selection screen was also implemented to screen libraries, e.g., environmental libraries—which yielded, inter alia, chorismate mutases (CM), which complement a PheA mutation in the auxotroph screening host. An adamantyl phosphonate, an inhibitor of CM activity, also was used to determine whether can minimize background CM activity in this selection/screening protocol.

chorismate mutases (CM) = experiment: Phenylalanine selection screen: suppression of background chorismate mutase activity; format: cell-based; conditions: PheA auxotroph screening host
Text: as §1

[1] = Activity assignment of exemplary polypeptides (Table 1, assays of Examples 1, 2 and 3); format: biochemical; conditions: Table 1 (FIG. 8)
Text: Table 1, presented as FIG. 8, details an exemplary activity determined for each exemplary polypeptide of the invention (and, also notes one exemplary nucleic acid of the invention that encodes the exemplary polypeptide; as determined by the assays described in Examples 1, 2 and 3, below. Table 1 also sets forth the source organism from which the polynucleotide was isolated (where “unknown” means that the source was an environmental sample), the GenBank accession number of the top BLAST hit, the organism from which the top BLAST hit was isolated, the percent sequence identity between the polypeptide of the invention and the top BLAST hit, the activity assigned to the top BLAST hit, and notes for that particular polynucleotide/polypeptide entry. […]
HAL enzyme activity can be determined as described in Baedeker & Schulz (Eur. J. Biochem 2002, 269, 1790-1797), wherein enzyme activity was determined as the rate of urocanate formation, measured spectrophotometrically at 277 nm. […] The reaction was started by adding 200 μL of 0.5 M histidine solution and then monitored for approximately 5 minutes.
In one aspect, PAL enzyme activity can be determined as described in Rother & Retey (Eur. J. Biochem, 2002, 269, 3065-3075), by following the formation of E-cinnamate spectrophotometrically at 30° C. at 290 nm. […] Kinetic constants were determined using a double reciprocal plot. […]

Row | Molecule | background growth with negative control (host+empty vector) (DH5α host) | further results
1 | C[C@](N)(Cc1ccccc1)C(=O)O [α-methylPhe, α-methylphenylalanine] | no background growth | 
2 | N[C@@H](Cc1ccccc1)C(=O)O [Phe, phenylalanine] | background growth | 
3 | N[C@@H](Cc1ccccc1Br)C(=O)O [2-BromoPhe, 2-Bromo-L-phenylalanine] | background growth | 
4 | adamantyl phosphonate |  | inhibition of background CM activity in selection/screening protocol (chorismate mutases (CM)): lack of potency
5 | N[C@@H](Cc1ccccc1Cl)C(=O)O [2-ChloroPhe, 2-Chloro-L-phenylalanine] | background growth | 
6 | SEQ ID NO:236: polypeptide encoded by SEQ ID NO:235, initially isolated from Pseudomonas fluorescens PfO-1 (protein, Obtained from environmental sample; DOMAIN (1)...(492): Phenylalanine and histidine ammonia-lyase; SITE (140)...(156): Phenylalanine and histidine ammonia-lyases signature. Prosite id = PS00488; SITE (201)...(204): N-glycosylation site. Prosite id = PS00001; SITE (514)...(517): N-glycosylat) MITIRGEGLTIAQIAAVARGAPVRMTDDEAVLARVRASRQRIVEALESGQQIYGVTTLYGGMADRVVPADRLEALQRVSLWHHKVGAGPRLPVPDVRAAMLLRANSLLKGASGVRVELVERYVAFLNAGATPHVYQRGSIGASGDLSPLAYIGAAVIGLDRAWLVDLGEETLDCLTVLRRLGLEPMILQPKEGLALCNGTAASTGVAANCIERAFALTALALGTHALYFQALDATTQSFEPFVHALKPHPGQVWTAREMAALLDGSGLVRSEAAGDRAHRRGGLIQDRYSLRCMPQFVGPIVDGLAEAARQIEIEANSANDNPLIDPETGEVFHTGNFLAEYTAVAMDRLRYHLGMLAKHLDTQIALLVAPEFSRGLSPSLAGNLEPGLNVGLKSLQISCNSLMPLLTFYGQSMADRFPTHAEQFNQNINSQAMNGANLARDSVEVLAHFMANALVFAVQAVELRAWLVAGTYDASEVLSPATRPLYAAARAAAAGPPGPHRPLVWNDTDGFLEDKVRGVMSSILEGGAVPEAVAPVRERLRAHRG |  | exemplary activity determined for the polypeptide [1]: esterase activity
7 | SEQ ID NO:2: polypeptide encoded by SEQ ID NO:1, initially isolated from Tannerella forsythensis ATCC 43037 (protein, Tannerella forsythensis ATCC 43037; DOMAIN (4)...(493): Phenylalanine and histidine ammonia-lyase) MEKTVTYQSEKGFSIHDVERLLLGQSHLKLSAESLQKVERCFIFLREFSTDKVIYGINTGFGPMAQYRVDDNCLKQLQYNIIRSHSTGAGEPLDPIYVKAAMIARLSTFLQGYSGIHTDLVRLLTEFINRDICPFIPEHGSVGASGDLVQLAHIALTLIGEGEVFYEGKRRPTAEVMQKEKLSPLDIYIREGLSATNGTSVMTGIGLVNLIYAKRLLHWSIAASVMMNEIASSYDDLMSPGLNATKRHEGQQEIARAMCRWAAGSKAMRKREIEMFQRHTEKVFGHKVQAYYSLRCVPQILGPIWDTMAYAEKVLVDELNSACDNPIVDPEAQYVYHGGNFHGDYISFEMDKLKIAVTKMTMLAERQLNYLFHNRINDDILPPFVNLGVLGLNYGLQAAQFTATSTTAECQTLSNPMYIHSIPNNNDNQDIVSMGANAALMAKTVIENGYQVMAIHFMALVQAVDYLKLQPRMAEKTRAVYDEIRAFFPVFTDDTPKYREIETMITYLKSSGKRI |  | exemplary activity determined for the polypeptide [1]: TAL and PAL activity
